Measurements from PMC4324447 (Journal of Medicinal Chemistry, 2014).
pEC50: −log10 of the molar value.

Columns and labels:
WT hMC4R = WT hMC4R (Homo sapiens, UniProt P32245); assay type: cell-based
L106P hMC4R = L106P hMC4R (Homo sapiens, UniProt P32245, L106P); assay: cAMP based CRE/β-galactosidase reporter gene functional bioassay, L106P hMC4R; assay type: cell-based
Sequence of L106P hMC4R (P32245 whole entry L106P): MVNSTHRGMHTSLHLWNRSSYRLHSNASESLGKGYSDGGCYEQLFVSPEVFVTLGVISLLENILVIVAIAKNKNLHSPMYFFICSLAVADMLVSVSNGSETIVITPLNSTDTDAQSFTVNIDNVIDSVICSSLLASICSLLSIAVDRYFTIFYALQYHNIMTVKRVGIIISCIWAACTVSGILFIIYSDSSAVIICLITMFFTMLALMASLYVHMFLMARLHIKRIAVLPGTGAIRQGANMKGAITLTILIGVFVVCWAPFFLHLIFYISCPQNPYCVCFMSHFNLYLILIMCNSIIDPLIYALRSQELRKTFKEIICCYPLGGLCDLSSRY

Sequence of WT hMC4R (P32245 whole entry): as the sequence (P32245 whole entry L106P) above, with P106L counted along it

SMILES: CC(=O)N[C@@H](Cc1cnc[nH]1)C(=O)N[C@H](Cc1ccccc1)C(=O)N[C@@H](CCCN=C(N)N)C(=O)N1Cc2ccccc2C[C@H]1C(N)=O [EMH4-107, Ac-His-DPhe-Arg-Tic-NH2]
- pEC50 (WT hMC4R): < 5.00
- pEC50 (L106P hMC4R): < 4.00
